# Experimental data from ChEMBL document CHEMBL5058649, “Data for DCP probe BAY 1816032” (2022).
# Columns and labels:
# [1] = target: Receptor-type tyrosine-protein kinase FLT3 (Homo sapiens) (UniProt P36888); test: FLT3 DiscoveRx kinase panel; conditions: Compound concentration 1.0 uM
# [2] = target: Protein kinase C eta type (Homo sapiens) (UniProt P24723); test: PRKCH DiscoveRx kinase panel; conditions: Compound concentration 1.0 uM
# [3] = target: Mast/stem cell growth factor receptor Kit (Homo sapiens) (UniProt P10721); test: KIT DiscoveRx kinase panel; conditions: Compound concentration 1.0 uM
# [4] = target: Serine/threonine-protein kinase 25 (Homo sapiens) (UniProt O00506); test: YSK1 DiscoveRx kinase panel; conditions: Compound concentration 1.0 uM
# [5] = target: LIM domain kinase 2 (Homo sapiens) (UniProt P53671); test: LIMK2 DiscoveRx kinase panel; conditions: Compound concentration 1.0 uM
# [6] = target: BDNF/NT-3 growth factors receptor (Homo sapiens) (UniProt Q16620); test: TRKB DiscoveRx kinase panel; conditions: Compound concentration 1.0 uM
# [7] = target: High affinity nerve growth factor receptor (Homo sapiens) (UniProt P04629); test: TRKA DiscoveRx kinase panel; conditions: Compound concentration 1.0 uM
# [8] = target: Serine/threonine-protein kinase TAO3 (Homo sapiens) (UniProt Q9H2K8); test: TAOK3 DiscoveRx kinase panel; conditions: Compound concentration 1.0 uM
# [9] = target: Tyrosine-protein kinase Blk (Homo sapiens) (UniProt P51451); test: BLK DiscoveRx kinase panel; conditions: Compound concentration 1.0 uM
# Chain of Tyrosine-protein kinase Blk (Homo sapiens) (P51451 2-505 limits assumed): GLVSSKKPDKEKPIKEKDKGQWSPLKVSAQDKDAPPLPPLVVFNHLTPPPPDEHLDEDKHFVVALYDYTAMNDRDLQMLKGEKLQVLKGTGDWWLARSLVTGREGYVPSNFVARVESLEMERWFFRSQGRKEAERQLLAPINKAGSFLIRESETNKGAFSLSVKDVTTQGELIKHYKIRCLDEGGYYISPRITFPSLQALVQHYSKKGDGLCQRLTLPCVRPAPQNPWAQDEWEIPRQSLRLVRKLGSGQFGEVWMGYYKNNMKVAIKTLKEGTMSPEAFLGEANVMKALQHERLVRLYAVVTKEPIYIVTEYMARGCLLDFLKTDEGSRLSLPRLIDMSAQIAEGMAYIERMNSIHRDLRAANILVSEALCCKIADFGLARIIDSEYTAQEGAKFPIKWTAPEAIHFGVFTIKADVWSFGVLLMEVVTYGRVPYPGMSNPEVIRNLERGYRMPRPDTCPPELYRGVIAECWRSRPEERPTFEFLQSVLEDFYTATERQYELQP
# [10] = target: Serine/threonine-protein kinase MRCK alpha (Homo sapiens) (UniProt Q5VT25); test: MRCKA DiscoveRx kinase panel; conditions: Compound concentration 1.0 uM
# [11] = target: Rho-associated protein kinase 1 (Homo sapiens) (UniProt Q13464); test: ROCK1 DiscoveRx kinase panel; conditions: Compound concentration 1.0 uM
# [12] = target: Serine/threonine-protein kinase PRP4 homolog (Homo sapiens) (UniProt Q13523); test: PRP4 DiscoveRx kinase panel; conditions: Compound concentration 1.0 uM
# [13] = target: Cyclin-G-associated kinase (Homo sapiens) (UniProt O14976); test: GAK DiscoveRx kinase panel; conditions: Compound concentration 1.0 uM
# [14] = target: 5-hydroxytryptamine receptor 7 (Homo sapiens, UniProt P34969); test: GPCRScan assay: inhibition of 5-HT7A; parameters: radioligand conc. used [nm] 5.0 – 6.0, parental cells Stable HEK
# Chain of 5-hydroxytryptamine receptor 7 (P34969 whole entry): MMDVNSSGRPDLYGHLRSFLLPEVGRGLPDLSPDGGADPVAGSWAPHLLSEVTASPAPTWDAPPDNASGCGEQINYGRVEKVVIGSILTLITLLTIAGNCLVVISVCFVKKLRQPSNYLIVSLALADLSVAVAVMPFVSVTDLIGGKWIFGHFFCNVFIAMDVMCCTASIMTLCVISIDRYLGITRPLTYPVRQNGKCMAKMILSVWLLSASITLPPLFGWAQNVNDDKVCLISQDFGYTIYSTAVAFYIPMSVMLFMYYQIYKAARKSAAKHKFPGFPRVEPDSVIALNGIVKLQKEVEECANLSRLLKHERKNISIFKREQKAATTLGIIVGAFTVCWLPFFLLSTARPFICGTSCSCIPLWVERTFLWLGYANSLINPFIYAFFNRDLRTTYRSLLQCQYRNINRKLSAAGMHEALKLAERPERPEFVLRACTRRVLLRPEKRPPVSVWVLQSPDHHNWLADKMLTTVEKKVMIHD
# [15] = target: ATP-sensitive inward rectifier potassium channel 11 (Cricetulus griseus) (UniProt A0A3L7HHE1); test: Inhibition of Potassium Channel [KATP] at 10 µM in the Eurofins-Panlabs radioligand binding assay (Eurofins_assay_265600); conditions: Cricetinae; Compound concentration 10.0 uM
# [16] = target: Aurora kinase C (Homo sapiens) (UniProt Q9UQB9); test: AURKC DiscoveRx kinase panel; conditions: Compound concentration 1.0 uM
# Chain of Aurora kinase C (Homo sapiens) (Q9UQB9 whole entry): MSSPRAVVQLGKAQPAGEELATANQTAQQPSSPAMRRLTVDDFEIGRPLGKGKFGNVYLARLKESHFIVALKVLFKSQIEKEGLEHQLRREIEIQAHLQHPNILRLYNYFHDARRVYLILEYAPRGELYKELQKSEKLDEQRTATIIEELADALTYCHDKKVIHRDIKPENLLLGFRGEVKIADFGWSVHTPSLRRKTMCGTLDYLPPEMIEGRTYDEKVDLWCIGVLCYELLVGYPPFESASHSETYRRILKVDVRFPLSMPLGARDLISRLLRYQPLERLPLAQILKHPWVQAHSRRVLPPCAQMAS
# [17] = target: Activin receptor type-1-like (Homo sapiens) (UniProt P37023); test: ACVRL1 DiscoveRx kinase panel; conditions: Compound concentration 1.0 uM
# [18] = target: Calcium/calmodulin-dependent protein kinase type 1G (Homo sapiens) (UniProt Q96NX5); test: CAMK1G DiscoveRx kinase panel; conditions: Compound concentration 1.0 uM
# Chain of Calcium/calmodulin-dependent protein kinase type 1G (Homo sapiens) (Q96NX5 whole entry): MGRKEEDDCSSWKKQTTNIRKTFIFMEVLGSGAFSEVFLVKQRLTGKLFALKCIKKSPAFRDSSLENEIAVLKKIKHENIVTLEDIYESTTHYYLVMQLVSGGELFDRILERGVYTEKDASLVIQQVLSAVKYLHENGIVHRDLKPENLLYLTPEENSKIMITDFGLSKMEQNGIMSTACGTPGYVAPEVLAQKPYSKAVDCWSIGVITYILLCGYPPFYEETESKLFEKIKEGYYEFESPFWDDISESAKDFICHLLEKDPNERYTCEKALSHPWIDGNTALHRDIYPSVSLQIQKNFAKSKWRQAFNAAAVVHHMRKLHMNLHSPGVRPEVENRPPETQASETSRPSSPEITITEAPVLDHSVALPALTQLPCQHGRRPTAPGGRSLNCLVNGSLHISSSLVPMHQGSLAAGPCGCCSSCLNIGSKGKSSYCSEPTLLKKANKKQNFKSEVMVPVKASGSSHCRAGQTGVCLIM
# [19] = target: Mitogen-activated protein kinase 11 (Homo sapiens) (UniProt Q15759); test: p38-beta DiscoveRx kinase panel; conditions: Compound concentration 1.0 uM
# [20] = target: Casein kinase I isoform gamma-3 (Homo sapiens) (UniProt Q9Y6M4); test: CSNK1G3 DiscoveRx kinase panel; conditions: Compound concentration 1.0 uM
# [21] = target: Mitogen-activated protein kinase kinase kinase 4 (Homo sapiens) (UniProt Q9Y6R4); test: MAP3K4 DiscoveRx kinase panel; conditions: Compound concentration 1.0 uM
# [22] = target: voltage-gated sodium channel, site 2 (Rattus norvegicus, UniProt F1LQQ7+O08562+O88420+O88457+P04774+P04775+P08104+P15389+P15390+Q62968); test: Inhibition of Sodium Channel, Site 2 at 10 µM in the Eurofins-Panlabs radioligand binding assay (Eurofins_assay_279510); format: protein assay; parameters: ligand concentration 5 nM, non-specific ligand with concentration 100 µM Veratridine, incubation time 60 min, incubation temperature 37 °C; conditions: male, Wistar, rat whole brain (except cerebellum) membranes, probe [3H] Batrachotoxinin, compound concentration 10 uM
# [23] = target: Phosphatidylinositol 4-phosphate 5-kinase type-1 alpha (Homo sapiens) (UniProt Q99755); test: PIP5K1A DiscoveRx kinase panel; conditions: Compound concentration 1.0 uM
# [24] = target: Ephrin type-A receptor 5 (Homo sapiens) (UniProt P54756); test: EPHA5 DiscoveRx kinase panel; conditions: Compound concentration 1.0 uM
# [25] = target: Ankyrin repeat and protein kinase domain-containing protein 1 (Homo sapiens) (UniProt Q8NFD2); test: ANKK1 DiscoveRx kinase panel; conditions: Compound concentration 1.0 uM
# Chain of Ankyrin repeat and protein kinase domain-containing protein 1 (Homo sapiens) (Q8NFD2 whole entry, the tested form may be a part): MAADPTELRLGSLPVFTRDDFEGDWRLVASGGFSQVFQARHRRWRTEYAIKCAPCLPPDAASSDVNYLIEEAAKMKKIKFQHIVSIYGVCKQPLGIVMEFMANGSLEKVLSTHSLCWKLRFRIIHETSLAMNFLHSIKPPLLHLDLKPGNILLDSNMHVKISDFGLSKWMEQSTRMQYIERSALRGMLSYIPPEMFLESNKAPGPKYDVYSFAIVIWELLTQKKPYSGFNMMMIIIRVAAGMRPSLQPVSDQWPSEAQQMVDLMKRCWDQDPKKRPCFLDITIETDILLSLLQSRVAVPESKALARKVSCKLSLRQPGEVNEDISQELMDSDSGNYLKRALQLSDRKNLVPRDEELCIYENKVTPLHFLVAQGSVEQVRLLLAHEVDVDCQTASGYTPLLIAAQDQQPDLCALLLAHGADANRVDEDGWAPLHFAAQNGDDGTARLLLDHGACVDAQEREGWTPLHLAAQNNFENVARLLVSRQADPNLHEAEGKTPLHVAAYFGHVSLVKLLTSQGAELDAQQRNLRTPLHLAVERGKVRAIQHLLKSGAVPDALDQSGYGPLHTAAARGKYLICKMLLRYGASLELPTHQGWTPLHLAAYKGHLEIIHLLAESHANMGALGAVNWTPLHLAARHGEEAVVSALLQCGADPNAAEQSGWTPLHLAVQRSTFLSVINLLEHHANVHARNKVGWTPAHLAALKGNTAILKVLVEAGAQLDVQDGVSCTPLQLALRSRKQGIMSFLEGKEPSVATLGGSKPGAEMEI
# [26] = target: Dual specificity protein kinase CLK2 (Homo sapiens) (UniProt P49760); test: CLK2 DiscoveRx kinase panel; conditions: Compound concentration 1.0 uM
# Chain of Dual specificity protein kinase CLK2 (Homo sapiens) (P49760 whole entry, looked up): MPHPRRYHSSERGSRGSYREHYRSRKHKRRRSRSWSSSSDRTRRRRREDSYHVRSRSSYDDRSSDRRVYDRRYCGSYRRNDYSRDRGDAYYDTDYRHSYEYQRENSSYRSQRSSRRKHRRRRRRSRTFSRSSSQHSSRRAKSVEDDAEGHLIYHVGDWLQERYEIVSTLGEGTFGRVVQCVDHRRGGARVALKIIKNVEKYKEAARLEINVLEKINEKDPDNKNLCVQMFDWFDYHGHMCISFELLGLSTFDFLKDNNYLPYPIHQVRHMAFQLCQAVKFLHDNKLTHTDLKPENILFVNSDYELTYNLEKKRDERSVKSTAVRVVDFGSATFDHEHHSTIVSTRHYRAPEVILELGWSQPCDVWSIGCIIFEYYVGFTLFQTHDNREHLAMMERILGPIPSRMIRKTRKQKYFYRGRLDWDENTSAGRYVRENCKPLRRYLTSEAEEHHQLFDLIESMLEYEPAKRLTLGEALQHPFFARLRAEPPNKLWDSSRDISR
# [27] = target: Mitogen-activated protein kinase 13 (Homo sapiens) (UniProt O15264); test: p38-delta DiscoveRx kinase panel; conditions: Compound concentration 1.0 uM
# [28] = target: hERG (KCNH2) (Homo sapiens, UniProt Q12809); test: Inhibition of Potassium Channel hERG at 10 µM in the Eurofins-Panlabs radioligand binding assay (Eurofins_assay_265900); parameters: ligand concentration 1.5 nM, non-specific ligand with concentration Astemizole, incubation time 60 min, incubation temperature 25 °C; conditions: HEK-293 cells expressing human recombinant hERG, probe [3H] Astemizole, compound concentration 10 uM
# Chain of hERG (KCNH2) (Q12809 whole entry): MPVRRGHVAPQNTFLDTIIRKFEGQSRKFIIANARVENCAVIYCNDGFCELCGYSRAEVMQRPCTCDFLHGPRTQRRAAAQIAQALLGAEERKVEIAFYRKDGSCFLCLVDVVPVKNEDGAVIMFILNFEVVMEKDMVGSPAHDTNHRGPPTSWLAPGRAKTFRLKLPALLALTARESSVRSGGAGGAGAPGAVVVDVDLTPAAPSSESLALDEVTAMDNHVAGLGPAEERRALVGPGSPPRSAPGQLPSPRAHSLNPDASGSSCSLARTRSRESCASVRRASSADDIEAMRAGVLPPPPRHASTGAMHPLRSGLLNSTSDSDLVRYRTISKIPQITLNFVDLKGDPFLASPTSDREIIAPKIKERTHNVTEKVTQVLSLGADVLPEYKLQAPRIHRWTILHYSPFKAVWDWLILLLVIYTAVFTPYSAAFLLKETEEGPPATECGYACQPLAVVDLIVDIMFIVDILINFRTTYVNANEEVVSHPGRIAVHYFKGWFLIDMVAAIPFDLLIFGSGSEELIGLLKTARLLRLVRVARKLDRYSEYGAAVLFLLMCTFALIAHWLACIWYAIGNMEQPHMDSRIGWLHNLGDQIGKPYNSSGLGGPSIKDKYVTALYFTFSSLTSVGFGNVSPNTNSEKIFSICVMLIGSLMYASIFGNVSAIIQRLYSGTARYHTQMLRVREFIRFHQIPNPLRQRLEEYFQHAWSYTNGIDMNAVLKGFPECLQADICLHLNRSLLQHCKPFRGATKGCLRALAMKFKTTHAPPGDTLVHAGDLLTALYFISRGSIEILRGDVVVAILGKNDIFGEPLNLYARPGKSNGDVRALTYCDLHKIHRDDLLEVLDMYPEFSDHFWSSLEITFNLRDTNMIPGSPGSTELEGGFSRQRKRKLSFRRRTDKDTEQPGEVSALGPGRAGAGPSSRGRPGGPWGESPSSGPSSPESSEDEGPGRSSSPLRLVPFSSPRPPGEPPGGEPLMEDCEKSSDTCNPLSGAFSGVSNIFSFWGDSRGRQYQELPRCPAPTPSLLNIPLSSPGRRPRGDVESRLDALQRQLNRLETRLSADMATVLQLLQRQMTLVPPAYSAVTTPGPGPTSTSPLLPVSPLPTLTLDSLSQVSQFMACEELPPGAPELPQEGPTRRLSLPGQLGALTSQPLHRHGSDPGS
# [29] = tested on: MDA-MB-453; test: MDA-MB-453 cell line Proliferation assay; format: functional, Homo sapiens; conditions: time 4 day
# [30] = target: Casein kinase I isoform alpha (Homo sapiens) (UniProt P48729); test: CSNK1A1 DiscoveRx kinase panel; conditions: Compound concentration 1.0 uM
# [31] = target: Tyrosine-protein kinase Fgr (Homo sapiens) (UniProt P09769); test: FGR DiscoveRx kinase panel; conditions: Compound concentration 1.0 uM
# [32] = tested on: MDA-MB-468; test: MDA-MB-468 cell line Proliferation assay; format: functional, Homo sapiens; conditions: time 4 day
# [33] = target: Bone morphogenetic protein receptor type-1B (Homo sapiens) (UniProt O00238); test: BMPR1B DiscoveRx kinase panel; conditions: Compound concentration 1.0 uM
# [34] = target: Mitogen-activated protein kinase kinase kinase kinase 2 (Homo sapiens) (UniProt Q12851); test: MAP4K2 DiscoveRx kinase panel; conditions: Compound concentration 1.0 uM
# [35] = target: Dual specificity mitogen-activated protein kinase kinase 2 (Homo sapiens) (UniProt P36507); test: MEK2 DiscoveRx kinase panel; conditions: Compound concentration 1.0 uM
# [36] = target: Beta-adrenergic receptor kinase 1 (Homo sapiens) (UniProt P25098); test: GRK2 DiscoveRx kinase panel; conditions: Compound concentration 1.0 uM
# [37] = target: Dual specificity protein kinase CLK1 (Homo sapiens) (UniProt P49759); test: CLK1 DiscoveRx kinase panel; conditions: Compound concentration 1.0 uM
# [38] = target: Serine/threonine-protein kinase PAK 1 (Homo sapiens) (UniProt Q13153); test: PAK1 DiscoveRx kinase panel; conditions: Compound concentration 1.0 uM
# [39] = target: Casein kinase II subunit alpha (Homo sapiens) (UniProt P68400); test: CSNK2A1 DiscoveRx kinase panel; conditions: Compound concentration 1.0 uM
# [40] = target: Serine/threonine-protein kinase pim-2 (Homo sapiens) (UniProt Q9P1W9); test: PIM2 DiscoveRx kinase panel; conditions: Compound concentration 1.0 uM
# [41] = target: Serine/threonine-protein kinase DCLK2 (Homo sapiens) (UniProt Q8N568); test: DCAMKL2 DiscoveRx kinase panel; conditions: Compound concentration 1.0 uM
# [42] = target: Androgen receptor (Homo sapiens) (UniProt P10275); conditions: Compound concentration 10.0 uM
# [43] = target: GABA-A receptor; anion channel (Rattus norvegicus) (UniProt O09028+P15431+P18506+P18508+P19969+P20236+P23574+P23576+P28471+P28473+P30191+P62813+P63079+P63138+Q91ZM7+Q9ES14); conditions: Compound concentration 10.0 uM
# [44] = target: Phosphatidylinositol 4,5-bisphosphate 3-kinase catalytic subunit alpha isoform (Homo sapiens) (UniProt P42336); test: PIK3CA DiscoveRx kinase panel; conditions: Compound concentration 1.0 uM
# [45] = target: Epidermal growth factor receptor (Homo sapiens) (UniProt P00533); test: EGFR DiscoveRx kinase panel; conditions: Compound concentration 1.0 uM
# Chain of Protein kinase C eta type (Homo sapiens) (P24723 whole entry): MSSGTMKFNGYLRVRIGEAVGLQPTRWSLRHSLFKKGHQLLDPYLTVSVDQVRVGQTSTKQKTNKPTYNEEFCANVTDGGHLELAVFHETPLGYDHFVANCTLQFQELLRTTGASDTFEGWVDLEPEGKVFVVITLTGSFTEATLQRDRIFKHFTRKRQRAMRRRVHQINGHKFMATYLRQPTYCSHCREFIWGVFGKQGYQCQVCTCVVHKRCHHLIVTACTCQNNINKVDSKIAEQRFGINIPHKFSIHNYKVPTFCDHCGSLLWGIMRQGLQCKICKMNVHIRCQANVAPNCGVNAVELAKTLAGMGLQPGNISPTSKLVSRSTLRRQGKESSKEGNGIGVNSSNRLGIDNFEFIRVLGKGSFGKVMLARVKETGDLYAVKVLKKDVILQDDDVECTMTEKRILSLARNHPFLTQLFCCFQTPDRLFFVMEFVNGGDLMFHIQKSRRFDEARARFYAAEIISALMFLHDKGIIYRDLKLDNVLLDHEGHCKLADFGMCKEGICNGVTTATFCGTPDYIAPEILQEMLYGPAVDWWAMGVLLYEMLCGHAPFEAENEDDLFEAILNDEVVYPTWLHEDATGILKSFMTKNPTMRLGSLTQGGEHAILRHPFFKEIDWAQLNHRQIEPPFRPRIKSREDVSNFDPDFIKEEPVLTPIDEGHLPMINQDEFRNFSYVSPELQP
smiles,measurement,setting,value
COc1cnccc1Nc1nc(-c2nn(Cc3c(F)cc(OCCO)cc3F)c3ccccc23)ncc1OC,residual activity,[1],88%
same,residual activity,[2],89%
same,residual activity,[3],82%
same,residual activity,[4],76%
same,residual activity,[5],97%
same,residual activity,[6],100%
same,residual activity,[7],92%
same,residual activity,[8],100%
same,residual activity,[9],88%
same,residual activity,[10],72%
same,residual activity,[11],100%
same,residual activity,[12],96%
same,residual activity,[13],77%
same,Ki,[14],> 10 µM
same,pKi,[14],< 5
same,inhibition,[15],4%
same,residual activity,[16],100%
same,residual activity,[17],69%
same,residual activity,[18],99%
same,residual activity,[19],82%
same,residual activity,[20],100%
same,residual activity,[21],80%
same,"inhibition at 60 min, 10 µM",[22],53%
same,residual activity,[23],83%
same,residual activity,[24],78%
same,residual activity,[25],100%
same,residual activity,[26],100%
same,residual activity,[27],99%
same,"inhibition at 60 min, 10 µM",[28],23% (not active)
same,Cell Proliferation IC50,[29],1.2 µM
same,residual activity,[30],99%
same,residual activity,[31],92%
same,Cell Proliferation IC50,[32],1 µM
same,residual activity,[33],100%
same,residual activity,[34],100%
same,residual activity,[35],94%
same,residual activity,[36],100%
same,residual activity,[37],100%
same,residual activity,[38],100%
same,residual activity,[39],100%
same,residual activity,[40],100%
same,residual activity,[41],90%
same,inhibition,[42],9%
same,inhibition,[43],24.9%
same,residual activity,[44],100%
same,residual activity,[45],100%
